Consider eleven molecules from article PMC8206078, “Identification of pyrogallol as a warhead in design of covalent inhibitors for the SARS-CoV-2 3CL protease” (Nature Communications, 2021).

Data set [1] relates to SARS-CoV-2 replication in Vero E6 cells. Briefly: microbe, parasite or virus in culture. It counts as cell-based.
For data set [2] the following is noted: for myricetin consumed: GSH, 600 min.
Data set [3] concerns SARS-CoV-2 replication in Vero E6 cells. The conditions noted are these: cited from earlier work.
Data set [4] deals with SARS-CoV-2 PLpro (Severe acute respiratory syndrome coronavirus 2, UniProt P0DTD1). It counts as biochemical.
The target in data set [5] is chymotrypsin from bovine pancreas (Bos taurus, UniProt P00766). Briefly: biochemical.
Data set [6] can be described thus: in vivo. The conditions noted are these: male, ICR, mouse; for AUC(0-inf): AUCINF_obs; for AUC(0-t): AUClast; for MRT inf: MRTINF_obs; for half-life: T1/2.
The conditions of data set [7]: male, ICR, in vivo, po, 30 mg/kg.
A short description of data set [8]: in vitro. The conditions noted are these: African green monkey.
The test system of data set [9] is Vero E6 cells.
Data set [10] can be described thus: PK study in mice. The following applies: mouse; for half-life: male, ICR, plasma; for T1/2: individual animals.
The mark [11] stands for this setting: Severe acute respiratory syndrome coronavirus 2, Vero C1008, 24 h.
Setting [12] is: Severe acute respiratory syndrome coronavirus 2, Vero C1008.
Where [13] appears, read: iv, 10 mg/kg, Concentration in mouse plasma, Mean.
Where [14] appears, read: po, 30 mg/kg, Concentration in mouse plasma.
Where [15] appears, read: po, 30 mg/kg, Concentration in mouse plasma, Mean.

“And” between values parts separate entries of the source, which are not always exact repeats. Equal values may be shown once. Read-outs that look alike come from different tables or passages of the source. Where only a bound is given, the exact number is not on record here.

`CCC(CC)COC(=O)[C@H](C)N[P@](=O)(OC[C@H]1O[C@@](C#N)(c2ccc3c(N)ncnn23)[C@H](O)[C@@H]1O)Oc1ccccc1` [remdesivir, reference compound] showed an EC50 in data set [1] (setting [11]) of 3.68 µM.
As for `O=c1c(O)c(-c2cc(O)c(O)c(O)c2)oc2cc(OCC3CCCC3)cc(O)c12` [compound 6, 7-O-cyclopentylmethyl-myricetin], the “inhibition ratio (%)” value in data set [1] (100 µM) is 99.992% and 99.991% and 99.989% and 98.833% and 95.7336% and 99.607% and 99.987% and 99.985%. The EC50 in [1] (read-out: EC50) was 10.1 µM and 7.07 µM and 5.5 µM.
In [1] (setting [11]), `O=c1c(O)c(-c2cc(O)c(O)c(O)c2)oc2cc(OP(=O)(Oc3ccccc3)Oc3ccccc3)cc(O)c12` [compound 9] returned an EC50 of 3.15 µM.
In the case of `O=C1c2c(O)cc(OP(=O)(Oc3ccccc3)Oc3ccccc3)cc2O[C@H](c2cc(O)c(O)c(O)c2)[C@H]1O` [compound 10], the EC50 in [1] is 6.99 µM and 8.24 µM and 10.2 µM and 10.4 µM and 8.4 µM; in data set [1] (setting [12]), 9.94 µM; in [1] (setting [11]) it was 9.03 µM.
As for `COc1cc(O)c2c(=O)c(O)c(-c3cc(O)c(O)c(O)c3)oc2c1` [compound 3, 7-O-methyl myricetin], the EC50 in [1] (setting [11]) is 12.6 µM.
With `O=c1cc(-c2ccccc2)oc2cc(O)c(O)c(O)c12` [baicalein, reference compound], in data set [2], the “adduct with GSH” value is recorded as “no adduct of GSH with baicalein was detected”. Further, the EC50 in data set [3] is 2940 nM.
Take N-phenylacrylamide [reference compound]: the kpseudo1st in data set [2] was 0.02117 and 0.01952 and 0.0207.
For the molecule `O=c1c(O)c(-c2cc(O)c(O)c(O)c2)oc2cc(O)cc(O)c12` [myricetin, 3,5,7,3′,4′,5′-hexahydroxyflavone], the “times weaker than against 3CLpro” value in [4] and in data set [5] was “more than 100” each time. In addition, the myricetin consumed in data set [2] (absence of oxygen) is 11%; in data set [2] (presence of oxygen), 65%. Moreover, the “Ln(%parent)” value is 4.593 and 4.572 and 4.649 in data set [2] (myricetin reacting with glutathione, 0h); 4.472 and 4.529 and 4.531 in data set [2] (myricetin reacting with glutathione, 2h); 4.27 and 4.376 and 4.3091 in data set [2] (myricetin reacting with glutathione, 4h); 4.107 and 4.203 and 4.174 in data set [2] (myricetin reacting with glutathione, 6h); 3.902 and 4.0179 and 3.984 in data set [2] (myricetin reacting with glutathione, 8h); 3.729 and 3.812 and 3.826 in data set [2] (myricetin reacting with glutathione, 10h). In addition, in data set [2] (myricetin reacting with glutathione, single independent experiment), the kpseudo1st is 0.001475 and 0.001311 and 0.001403. Moreover, in data set [5], half-maximal inhibition (IC50) was put at 132 ± 10.6 µM. Besides, a half-maximal effect in [1] (setting [11]) (EC50) was put at 8 µM. The MRT in data set [6] (ip, 10 mg/kg) came to 5.4 min; in data set [6] (po, 30 mg/kg), 50.4 min. The AUC(0-inf) in data set [6] (ip, 10 mg/kg) was 1040 ng·h/mL; in data set [6] (po, 30 mg/kg), 8.51 ng·h/mL. Moreover, the AUC(0-t) was found to be 1090 ± 103 ng·h/mL in data set [6] (ip, 10 mg/kg) and 6.07 ng·h/mL in data set [6] (po, 30 mg/kg). Further, the Cmax in [6] (ip, 10 mg/kg) turned out to be 1800 ± 346 ng/mL; in [6] (po, 30 mg/kg) it was 8.59 ng/mL. Further, the MRT inf in data set [6] (ip, 10 mg/kg) was 66.6 min; in data set [6] (po, 30 mg/kg), 50.4 min. The half-life in [6] (ip, 10 mg/kg) is 126 ± 1.2 min; in [6] (po, 30 mg/kg), 26.4 min. For the same molecule, in [6] (po, 30 mg/kg, Tmax), the Tmax is 30 min. Also, the T1/2 in data set [7] (mouse) is 26.4 min. Further, in [8], the CC50 was > 200 µM.
`O=C1c2c(O)cc(O)cc2O[C@H](c2cc(O)c(O)c(O)c2)[C@H]1O` [dihydromyricetin]: the EC50 in [1] is 13.9 µM and 9.94 µM and 13.7 µM and 14 µM and 17.6 µM; in data set [1] (setting [12]) it was 12.3 µM; in data set [1] (setting [11]) it was 13.6 µM.
On to `CCC(CC)COC(=O)[C@H](C)N[P@](=O)(OC[C@H]1O[C@@](C#N)(c2ccc3c(N)ncnn23)[C@H](O)[C@@H]1O)Oc1ccccc1` [remisivir], for which the “inhibition ratio (%)” value in data set [9] (concentration 2.34375 (unit not given)) is 99.5877% and 102.33% and 102.223%; in data set [9] (concentration 4.6875 (unit not given)), 100.126% and 103.513% and 104.159%; in data set [9] (concentration 9.375 (unit not given)) it was 103.244% and 98.6198% and 99.2113%; in data set [9] (concentration 18.75 (unit not given)) it was 101.362% and 100.126% and 95.6085%; in data set [9] (concentration 37.5 (unit not given)) it was 102.707% and 103.352% and 97.8132%; in [9] (concentration 75 (unit not given)) it was 97.383% and 95.0708% and 98.7274%. Also, the “inhibition ratio (%)” value was 83.7247% and 84.1011% and 85.4454% in data set [9] (concentration 150 (unit not given)); 42.4807% and 43.2336% and 43.126% in data set [9] (concentration 300 (unit not given)). Besides, the EC50 in [1] (read-out: EC50 (µM) Mean) was determined as 3.68 µM.
Take `COc1cc(O)c2c(c1)O[C@H](c1cc(O)c(O)c(O)c1)[C@@H](O)C2=O` [compound 7, 7-O-methyl dihydromyricetin]: the half-life in data set [10] (iv, 10 mg/kg, T1/2, mice, i.v. 10 mg/kg) is 34.8 ± 37.8 min; in data set [10] (iv, 10 mg/kg, T1/2, mouse, i.v. 10 mg/kg, mean), 34.8 min; in [10] (po, 30 mg/kg, T1/2, mice, p.o. 30 mg/kg) it was 104 min; in [10] (po, 30 mg/kg, T1/2, mouse, p.o. 30 mg/kg, mean) it was 104 min. The T1/2 in [10] (i.v. 10 mg/kg, 10 mg/kg) was 0.12 h and 1.62 h and 0.09 h and 0.67 h and 0.38 h; in data set [10] (p.o. 30 mg/kg, 30 mg/kg), 1.85 h and 3.11 h and 1.44 h and 1.31 h and 0.98 h. The “inhibition ratio (%)” value in [1] (6.25 µM) was 21.811% and 15.067% and 12.154%; in [1] (25 µM), 58.083% and 57.749% and 55.409%; in [1] (50 µM), 75.679% and 73.921% and 74.205%; in [1] (200 µM), 99.619% and 99.626% and 99.565%. The same molecule showed a half-maximal effective concentration (EC50) in [1] (setting [11]) of 11.5 µM. Also, the bioavailability in data set [6] worked out at 18.1%; in data set [6] (po, 30 mg/kg), 18.1%. The mean residence time (MRT) in data set [6] (iv, 10 mg/kg) turned out to be 41.4 ± 51.6 min; in data set [6] (po, 30 mg/kg) it was 113 min. This molecule also showed a concentration at 0.05 h in data set [6] (setting [13]) of 3190 ng/mL. The results for the concentration at 2 h in [6] (setting [13]) and in [6] (setting [15]) were 62.4 ng/mL and 61.2 ng/mL, respectively. In addition, the results for the concentration at 4 h in data set [6] (setting [13]) and in data set [6] (setting [15]) were 23.6 ng/mL and 32.9 ng/mL, respectively. For the same molecule, the concentration at 8 h in [6] (setting [13]) came out at 0 ng/mL; in data set [6] (setting [14]) it was 10.1 ng/mL; in data set [6] (setting [15]) it was 4.32 ng/mL. The concentration at 24 h in [6] (setting [13]) and in data set [6] (setting [15]) was 0 ng/mL in each case. Further, the Tmax in [6] (po, 30 mg/kg) was found to be 15 min. In addition, in data set [6] (po, 30 mg/kg), the AUC(0-inf) was found to be 588 ng·h/mL. Besides, the AUC(0-t) in data set [6] (po, 30 mg/kg) is 510 ng·h/mL. Besides, the concentration at 0.5 h in data set [6] (setting [14]) is 200 ng/mL; in [6] (setting [15]) it was 279 ng/mL. The concentration at 1 h was found to be 112 ng/mL in [6] (setting [14]) and 118 ng/mL in [6] (setting [15]). In data set [7] (8 h), the “Concentration in mouse plasma” value was 11.5 ng/mL.

One may read the EC50 as the concentration giving half of the maximal effect. Usually IC50 stands for the midpoint of a concentration-inhibition curve. The MRT is the average time that molecules of a dose stay in the body. In general, AUC(0-inf) refers to the area under the concentration-time curve extrapolated to infinity. Usually AUC(0-t) stands for exposure summed from dosing to a finite time, without extrapolation to infinity. As usually defined, the Cmax is the peak of the concentration-time curve. The MRT inf is the average time that molecules of a dose stay in the body. As a reminder, the half-life is how long it takes for the measured level to halve. By Tmax is commonly meant the time from dosing to the highest level. Broadly, the bioavailability is dose-corrected exposure relative to a reference, in per cent.
